Results published in patent US8383619B2, “Pharmaceutical compounds” (Astex Therapeutics Limited, priority 2008, dated 2013).
Where a name gives a salt, the structure may show the parent alone.

Columns and labels:
[1] = Whole blood stability; type: in vitro ADME; details: 1 μM, 37° C.
Text: (§1) The breakdown of a prodrug in vivo could occur in one or more of several different compartments including for example, but not limited to blood/plasma, liver, stomach, target tissue (e.g. tumour). The preferred location for optimum formation of the parent drug will depend on the disposition in vivo of the pro-drug and parent and an understanding of the optimum concentrations of each required in the circulation to maximise exposure to the active moiety in the target tissue. The potential for pro-drug molecules to deliver the active parent drug may be assessed in vitro by measuring the breakdown of a pro-drug in the presence of relevant body fluids. For the purpose of gaining a preliminary understanding of the stability of compounds of the invention to enzymatic hydrolysis in two such bodily compartments, compound turnover has been studied following incubation in whole blood and liver homogenate from mice and humans. The data obtained from these studies provide a preliminary understanding of which of the prodrugs are better able to deliver parent compound (i.e. are more rapidly broken down to parent compound) in these compartments. Further studies could also determine stability in other compartments (e.g. in the target tumours by measuring stability in tumour lysates).
For these studies, human whole blood was collected from 3 male healthy volunteers in lithium heparin tubes. The blood was pooled and stored at room temperature for a maximum of 2 hours prior to initiation of incubations. Mouse blood was collected from 70 male mice, strain: Balb/c into lithium heparin tubes and pooled.
(§2) Each incubation consisted of a volume of 1 mL. Test compound dosing solutions were then spiked into each homogenate at a final compound concentration of 1 μM. Incubations were performed in the atmosphere in a shaking water bath at 37° C.
(§3) An aliquot of incubation samples was removed into an equal volume of ice-cold acetonitrile at various time points. Samples (whole blood/homogenate+acetonitrile) were centrifuged and aliquots of the supernatant were analysed by HPLC-MS/MS.
(§4) The compound X (2,4-dihydroxy-5-isopropyl-phenyl)-[5-(4-methyl-piperazin-1-ylmethyl)-1,3-dihydro-isoindol-2-yl]-methanone) and the compounds of Examples 1 to 24 were incubated in both whole blood and liver homogenate by Quotient Bioresearch (Rushden, UK). The percentage remaining of parent compound following incubation in whole blood/liver homogenate from human and mouse are set out in the table below.

[2] = Liver homogenate stability; type: in vitro ADME; details: 1 μM, 37° C., 120 mins
Text: as §1
Mouse livers were obtained from 20 male mice, strain: Balb/c from stock animals. Human liver tissue was obtained from 3 individuals sourced from a UK human tissue bank. The livers were stored frozen. The livers were defrosted and then homogenised to form a homogenate of approximately 30% (w/v) in phosphate buffer, 100 mM, pH 7.4 (referred to as ‘buffer’). Homogenates were kept on ice until use.
as §2, §3, §4

SMILES | Percentage remaining Human blood ([1]; 120 mins) | Percentage remaining Mouse blood ([1]; 120 mins) | Percentage remaining Human Liver [2] | Percentage remaining Mouse Liver [2] | Percentage remaining Mouse blood ([1]; 60 mins (footnote *))
CCN(CC)C(=O)Oc1cc(OC(=O)N(CC)CC)c(C(C)C)cc1C(=O)N1Cc2ccc(CN3CCN(C)CC3)cc2C1 [Example 10] | 108% | 93% | 56% | 60% | –
CC(C)c1cc(C(=O)N2Cc3ccc(CN4CCN(C)CC4)cc3C2)c(O)cc1OC(=O)N1CCOCC1 [Example 21, 2-[4-(morpholin-4-ylcarbonyloxy)-2-hydroxy-5-isopropyl-benzoyl]-5-(4-methyl-piperazin-1-ylmethyl)-1,3-dihydro-isoindole] | 82% | 0% | 0% | 0% | –
CC(C)c1cc(C(=O)N2Cc3ccc(CN4CCN(C)CC4)cc3C2)c(OC(=O)N2CCCC2)cc1O [Example 18, 2-[2-(pyrrolidin-1-ylcarbonyloxy)-4-hydroxy-5-isopropyl-benzoyl]-5-(4-methyl-piperazin-1-ylmethyl)-1,3-dihydro-isoindole] | 110% | – | 65% | 80% | 103% *
CC(C)c1cc(C(=O)N2Cc3ccc(CN4CCN(C)CC4)cc3C2)c(OC(=O)N(C)C)cc1O [Example 16, dimethyl-carbamic acid 5-hydroxy-4-isopropyl-2-[5-(4-methyl-piperazin-1-ylmethyl)-1,3-dihydro-isoindole-2-carbonyl]-phenyl ester] | 104% | 91% | 73% | 82% | –
CC(C)c1cc(C(=O)N2Cc3ccc(CN4CCN(C)CC4)cc3C2)c(OC(=O)N2CCCC2)cc1OC(=O)N1CCCC1 [Example 12, 2-[2,4-bis-(pyrrolidin-1-ylcarbonyloxy)-5-isopropyl-benzoyl]-5-(4-methyl-piperazin-1-ylmethyl)-1,3-dihydro-isoindole] | 110% | 37% | 43% | 1% | –
CC(C)c1cc(C(=O)N2Cc3ccc(CN4CCN(C)CC4)cc3C2)c(OC(=O)OC(C)(C)C)cc1OC(=O)OC(C)(C)C [Example 23, Carbonic acid 5-tert-butoxycarbonyloxy-4-isopropyl-2-[5-(4-methyl-piperazin-1-ylmethyl)-1,3-dihydro-isoindole-2-carbonyl]-phenyl ester tert-butyl ester] | 26% | 0% | 1% | 0% | –
CC(C)c1cc(C(=O)N2Cc3ccc(CN4CCN(C)CC4)cc3C2)c(OC(=O)N2CCOCC2)cc1O [Example 20, 2-[2-(morpholin-4-ylcarbonyloxy)-4-hydroxy-5-isopropyl-benzoyl]-5-(4-methyl-piperazin-1-ylmethyl)-1,3-dihydro-isoindole] | 97% | 16% | 23% | 45% | –
CCN(CC)C(=O)Oc1cc(O)c(C(C)C)cc1C(=O)N1Cc2ccc(CN3CCN(C)CC3)cc2C1 [Example 14, Diethyl-carbamic acid 5-hydroxy-4-isopropyl-2-[5-(4-methyl-piperazin-1-ylmethyl)-1,3-dihydro-isoindole-2-carbonyl]-phenyl ester] | 94% | 94% | 88% | 89% | –
CC(C)c1cc(C(=O)N2Cc3ccc(CN4CCN(C)CC4)cc3C2)c(OC(=O)OC(C)(C)C)cc1OC(=O)N(C)C [Example 22, Carbonic acid tert-butyl ester 5-dimethylcarbamoyloxy-4-isopropyl-2-[5-(4-methyl-piperazin-1-ylmethyl)-1,3-dihydro-isoindole-2-carbonyl]-phenyl ester] | 18% | 0% | 6% | 0% | –

More lines, main results first:

Percentage remaining Human blood ([1]; 120 mins) | Percentage remaining Mouse blood ([1]; 120 mins) | Percentage remaining Human Liver [2] | Percentage remaining Mouse Liver [2] | SMILES | Percentage remaining Mouse blood ([1]; 60 mins (footnote *))
122% | 129% | 85% | 100% | COc1cc(O)c(C(=O)N2Cc3ccc(CN4CCN(C)CC4)cc3C2)cc1C(C)C [Example 2, (2-Hydroxy-5-isopropyl-4-methoxy-phenyl)-[5-(4-methyl-piperazin-1-ylmethyl)-1,3-dihydro-isoindol-2-yl]-methanone] | –
107% | 100% | 79% | 93% | COc1cc(OC)c(C(C)C)cc1C(=O)N1Cc2ccc(CN3CCN(C)CC3)cc2C1 [Example 3, (5-Isopropyl-2,4-dimethoxy-phenyl)-[5-(4-methyl-piperazin-1-ylmethyl)-1,3-dihydro-isoindol-2-yl]-methanone] | –
105% | 125% | 94% | 75% | C=CCOc1cc(OCC=C)c(C(C)C)cc1C(=O)N1Cc2ccc(CN3CCN(C)CC3)cc2C1 [Example 6, (2,4-Bis-allyloxy-5-isopropyl-phenyl)-[5-(4-methyl-piperazin-1-ylmethyl)-1,3-dihydro-isoindol-2-yl]-methanone] | –
109% | 106% | 92% | 63% | C=CCOc1cc(O)c(C(C)C)cc1C(=O)N1Cc2ccc(CN3CCN(C)CC3)cc2C1 [Example 4, (2-Allyloxy-4-hydroxy-5-isopropyl-phenyl)-[5-(4-methyl-piperazin-1-ylmethyl)-1,3-dihydro-isoindol-2-yl]-methanone] | –
100% | 104% | 99% | 104% | COc1cc(O)c(C(C)C)cc1C(=O)N1Cc2ccc(CN3CCN(C)CC3)cc2C1 [Example 1, (4-Hydroxy-5-isopropyl-2-methoxy-phenyl)-[5-(4-methyl-piperazin-1-ylmethyl)-1,3-dihydro-isoindol-2-yl]-methanone] | –
11% | 0% | 2% | 0% | CC(C)c1cc(C(=O)N2Cc3ccc(CN4CCN(C)CC4)cc3C2)c(OC(=O)C(C)(C)C)cc1OC(=O)C(C)(C)C [Example 24, 2,2-Dimethyl-propionic acid 5-(2,2-dimethyl-propionyloxy)-2-isopropyl-4-[5-(4-methyl-piperazin-1-ylmethyl)-1,3-dihydro-isoindole-2-carbonyl]-phenyl ester dihydrochloride] | –
114% | 104% | 102% | 79% | COCOc1cc(O)c(C(=O)N2Cc3ccc(CN4CCN(C)CC4)cc3C2)cc1C(C)C [Example 8, [2-Hydroxy-5-isopropyl-4-(methoxymethyloxy)-phenyl]-[5-(4-methyl-piperazin-1-ylmethyl)-1,3-dihydro-isoindol-2-yl]-methanone] | –
115% | 124% | 81% | 86% | C=CCOc1cc(O)c(C(=O)N2Cc3ccc(CN4CCN(C)CC4)cc3C2)cc1C(C)C [Example 5, (4-Allyloxy-2-hydroxy-5-isopropyl-phenyl)-[5-(4-methyl-piperazin-1-ylmethyl)-1,3-dihydro-isoindol-2-yl]-methanone] | –
109% | – | 92% | 115% | COCOc1cc(O)c(C(C)C)cc1C(=O)N1Cc2ccc(CN3CCN(C)CC3)cc2C1 [Example 7, [4-Hydroxy-5-isopropyl-2-(methoxymethyloxy)-phenyl]-[5-(4-methyl-piperazin-1-ylmethyl)-1,3-dihydro-isoindol-2-yl]-methanone] | 104% *
100% | 102% | 94% | 112% | CC(C)c1cc(C(=O)N2Cc3ccc(CN4CCN(C)CC4)cc3C2)c(O)cc1O [Compound X, (2,4-dihydroxy-5-isopropyl-phenyl)-[5-(4-methyl-piperazin-1-ylmethyl)-1,3-dihydro-isoindol-2-yl]-methanone] | –
